In one test the test system is RL9-pulsed splenocytes. Also on record: species or system mice. The following applies: mouse, in vivo.
In another test the test system is MHC I molecules. The following applies: in vivo; cited from earlier work.

With RYCINSASL (SEQ ID NO: 28419) [RL9], the “response pattern after immunization” value in the test with RL9-pulsed splenocytes is “protective response pattern”. Further, the “MHC I presentation” value with MHC I molecules is on record as “presented on MHC I molecules”.

The values are drawn from US12374421B2, “Bioinformatic processes for determination of peptide binding” (priority 2013, dated 2025).
